In PubChem BioAssay (NCI):
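These data come from cells grown in 96-well plates and exposed to compound for 48 hours at five concentrations. GI50: concentration for 50% inhibition of growth. TGI marks complete inhibition of growth.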

Assays:
Assay in all cases: DTP human tumour cell line panel, 48 h
786-0 renal = system: 786-0 renal
A498 renal = system: A498 renal
A549 NSCLC = system: A549 NSCLC
ACHN renal = system: ACHN renal
BT-549 breast = system: BT-549 breast
CAKI-1 renal = system: CAKI-1 renal
CCRF-CEM leukemia = system: CCRF-CEM leukemia
COLO 205 colon = system: COLO 205 colon
DU-145 prostate = system: DU-145 prostate
HCC-2998 colon = system: HCC-2998 colon
HCT-116 colon = system: HCT-116 colon
HCT-15 colon = system: HCT-15 colon
HL-60(TB) leukemia = system: HL-60(TB) leukemia
HOP-62 NSCLC = system: HOP-62 NSCLC
HOP-92 NSCLC = system: HOP-92 NSCLC
HS 578T breast = system: HS 578T breast
HT29 colon = system: HT29 colon
IGROV1 ovarian = system: IGROV1 ovarian
K-562 leukemia = system: K-562 leukemia
KM12 colon = system: KM12 colon
LOX IMVI melanoma = system: LOX IMVI melanoma
M14 melanoma = system: M14 melanoma
MALME-3M melanoma = system: MALME-3M melanoma
MCF7 breast = system: MCF7 breast
MDA-MB-231 breast = system: MDA-MB-231 breast
MDA-MB-435 = system: MDA-MB-435
MOLT-4 leukemia = system: MOLT-4 leukemia
NCI-H226 lung = system: NCI-H226 lung
NCI-H23 lung = system: NCI-H23 lung
NCI-H460 lung = system: NCI-H460 lung
NCI-H522 lung = system: NCI-H522 lung
NCI/ADR-RES ovarian = system: NCI/ADR-RES ovarian
OVCAR-3 ovarian = system: OVCAR-3 ovarian
OVCAR-4 ovarian = system: OVCAR-4 ovarian
OVCAR-5 ovarian = system: OVCAR-5 ovarian
OVCAR-8 ovarian = system: OVCAR-8 ovarian
PC-3 prostate = system: PC-3 prostate
SF-268 CNS = system: SF-268 CNS
SF-295 CNS = system: SF-295 CNS
SF-539 CNS = system: SF-539 CNS
SK-MEL-2 melanoma = system: SK-MEL-2 melanoma
SK-MEL-28 melanoma = system: SK-MEL-28 melanoma
SK-MEL-5 melanoma = system: SK-MEL-5 melanoma
SK-OV-3 ovarian = system: SK-OV-3 ovarian
SN12C renal = system: SN12C renal
SNB-19 CNS = system: SNB-19 CNS
SNB-75 CNS = system: SNB-75 CNS
SR leukemia = system: SR leukemia
SW-620 colon = system: SW-620 colon
T-47D breast = system: T-47D breast
TK-10 renal = system: TK-10 renal
U251 CNS = system: U251 CNS
UACC-257 melanoma = system: UACC-257 melanoma
UACC-62 melanoma = system: UACC-62 melanoma
UO-31 renal = system: UO-31 renal

For `O=C1C(Cl)=C(Nc2cccc(C(F)(F)F)c2)C(=O)N1Cc1ccc(Cl)cc1`, the GI50 (786-0 renal) was < 0.0324 µM, the TGI (786-0 renal) was 13.5 µM and the GI50 (A498 renal) was 0.73 µM. The TGI (A498 renal) was 15.7 µM, the GI50 (A549 NSCLC) was 1.13 µM and the TGI (A549 NSCLC) was 16.9 µM. The GI50 (ACHN renal) was 0.421 µM, the TGI (ACHN renal) was 15.1 µM and the GI50 (BT-549 breast) was 0.154 µM. The TGI (BT-549 breast) was 20.3 µM, the GI50 (CAKI-1 renal) was 0.289 µM and the TGI (CAKI-1 renal) was 16.4 µM. The GI50 (CCRF-CEM leukemia) was 0.59 µM, the TGI (CCRF-CEM leukemia) was > 100 µM and the GI50 (COLO 205 colon) was 0.867 µM. For the same molecule, the TGI (COLO 205 colon) was 20.1 µM, the GI50 (DU-145 prostate) was 1.13 µM and the TGI (DU-145 prostate) was 7.92 µM. The GI50 (HCC-2998 colon) was 0.835 µM, the TGI (HCC-2998 colon) was 18.8 µM and the GI50 (HCT-116 colon) was 0.0705 µM. It also gave a TGI (HCT-116 colon) of 4.88 µM, a GI50 (HCT-15 colon) of 0.166 µM and a TGI (HCT-15 colon) of 12.5 µM. For the same molecule, the GI50 (HL-60(TB) leukemia) was 1.7 µM, the TGI (HL-60(TB) leukemia) was > 100 µM and the GI50 (HOP-62 NSCLC) was 0.835 µM. The TGI (HOP-62 NSCLC) was 17.4 µM, the GI50 (HOP-92 NSCLC) was 15 µM and the TGI (HOP-92 NSCLC) was 33.1 µM. The GI50 (HS 578T breast) was 0.711 µM, the TGI (HS 578T breast) was 33 µM and the GI50 (HT29 colon) was 0.595 µM. For the same molecule, the TGI (HT29 colon) was 24.9 µM, the GI50 (IGROV1 ovarian) was 2.76 µM and the TGI (IGROV1 ovarian) was > 48.5 µM. For the same molecule, the GI50 (K-562 leukemia) was 1.33 µM, the TGI (K-562 leukemia) was > 100 µM and the GI50 (KM12 colon) was 2.35 µM. The TGI (KM12 colon) was 19.6 µM, the GI50 (LOX IMVI melanoma) was 0.241 µM and the TGI (LOX IMVI melanoma) was 5.15 µM. For the same molecule, the GI50 (M14 melanoma) was 1.34 µM, the TGI (M14 melanoma) was 18.5 µM and the GI50 (MALME-3M melanoma) was < 0.0488 µM. It also gave a TGI (MALME-3M melanoma) of 0.741 µM, a TGI (MCF7 breast) of 4.82 µM and a GI50 (MDA-MB-231 breast) of 0.207 µM. For the same molecule, the TGI (MDA-MB-231 breast) was 8.74 µM, the TGI (MDA-MB-435) was 4.46 µM and the GI50 (MOLT-4 leukemia) was 0.119 µM. The TGI (MOLT-4 leukemia) was > 100 µM, the GI50 (NCI-H226 lung) was < 0.0129 µM and the GI50 (NCI-H23 lung) was 0.162 µM. For the same molecule, the TGI (NCI-H23 lung) was 8.01 µM, the GI50 (NCI-H460 lung) was < 0.0461 µM and the TGI (NCI-H460 lung) was 13.3 µM. For the same molecule, the GI50 (NCI-H522 lung) was 2.11 µM, the TGI (NCI-H522 lung) was 25.2 µM and the GI50 (NCI/ADR-RES ovarian) was < 0.0431 µM. The TGI (NCI/ADR-RES ovarian) was 12.3 µM, the GI50 (OVCAR-3 ovarian) was 0.16 µM and the TGI (OVCAR-3 ovarian) was 5.76 µM. The GI50 (OVCAR-4 ovarian) was 5.32 µM, the TGI (OVCAR-4 ovarian) was > 50.9 µM and the GI50 (OVCAR-5 ovarian) was 2.2 µM. The TGI (OVCAR-5 ovarian) was 23.5 µM, the GI50 (OVCAR-8 ovarian) was 0.699 µM and the TGI (OVCAR-8 ovarian) was 23.3 µM. For the same molecule, the GI50 (PC-3 prostate) was 0.298 µM, the TGI (PC-3 prostate) was 16.8 µM and the GI50 (SF-268 CNS) was 0.312 µM. The TGI (SF-268 CNS) was 14.8 µM, the TGI (SF-295 CNS) was 16.2 µM and the GI50 (SF-539 CNS) was 0.128 µM. The TGI (SF-539 CNS) was 2.09 µM, the GI50 (SK-MEL-2 melanoma) was 4.02 µM and the TGI (SK-MEL-2 melanoma) was > 25.9 µM. For the same molecule, the GI50 (SK-MEL-28 melanoma) was 3.95 µM, the TGI (SK-MEL-28 melanoma) was 23.6 µM and the GI50 (SK-MEL-5 melanoma) was 0.621 µM. For the same molecule, the TGI (SK-MEL-5 melanoma) was 13.5 µM, the GI50 (SK-OV-3 ovarian) was 3.78 µM and the TGI (SK-OV-3 ovarian) was 20.8 µM. The GI50 (SN12C renal) was 0.545 µM, the TGI (SN12C renal) was 10.7 µM and the GI50 (SNB-19 CNS) was 6.37 µM. It also gave a TGI (SNB-19 CNS) of 24.1 µM, a GI50 (SNB-75 CNS) of 1.07 µM and a TGI (SNB-75 CNS) of 20 µM. For the same molecule, the GI50 (SR leukemia) was < 0.0219 µM, the TGI (SR leukemia) was > 65.3 µM and the GI50 (SW-620 colon) was 0.0609 µM. For the same molecule, the TGI (SW-620 colon) was 16.9 µM, the GI50 (T-47D breast) was 2.11 µM and the TGI (T-47D breast) was 30.8 µM. The GI50 (TK-10 renal) was 1.08 µM, the TGI (TK-10 renal) was 19.3 µM and the GI50 (U251 CNS) was 0.0371 µM. It also gave a TGI (U251 CNS) of 13.1 µM, a GI50 (UACC-257 melanoma) of 6.59 µM and a TGI (UACC-257 melanoma) of 22.2 µM. It also gave a TGI (UACC-62 melanoma) of 1.26 µM, a GI50 (UO-31 renal) of 1.11 µM and a TGI (UO-31 renal) of 33.8 µM.
